The values that follow come from patent publication US9662310B2, “Cyclopropanecarboxylic acid derivative” (DAIICHI SANKYO COMPANY, LIMITED, priority 2010, dated 2017).

A word on the pIC50: it is the negative decadic logarithm of the IC50, by convention in mol/L.

pIC50: −log10 of the molar value.

Chain of TAFIa (Q96IY4 115-423): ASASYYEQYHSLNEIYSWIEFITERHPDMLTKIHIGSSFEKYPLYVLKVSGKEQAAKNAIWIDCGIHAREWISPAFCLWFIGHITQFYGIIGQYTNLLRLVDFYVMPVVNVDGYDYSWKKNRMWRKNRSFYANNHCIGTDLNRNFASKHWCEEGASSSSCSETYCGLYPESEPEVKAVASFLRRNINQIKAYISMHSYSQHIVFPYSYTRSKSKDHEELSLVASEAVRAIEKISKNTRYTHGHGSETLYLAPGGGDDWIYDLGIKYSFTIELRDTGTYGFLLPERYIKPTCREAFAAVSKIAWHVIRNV

The first test has as its target TAFIa (Homo sapiens (Human), UniProt Q96IY4). Kind of test: Determination of TAFIa enzyme inhibitory activity (FAAK substrate degradation). It counts as biochemical. Particulars: TAFI activated with human thrombin / rabbit lung thrombomodulin; substrate FAAK, absorbance at 330 nm; read-out: TAFIa IC50. On the procedure: Determination of TAFIa Enzyme Inhibitory Activity
HEPES buffered saline (20 mM HEPES, 150 mM NaCl, pH 7.4; hereinafter, referred to as HBS) was used in the preparation of a reaction solution. To 12 μL of a 250 μg/mL TAFI solution, 30 μL of an HBS solution containing 4 U/mL human thrombin, 12 U/mL rabbit lung thrombomodulin, and 12 mM CaCl2 was added, and the mixture was gently stirred. Then, TAFI was activated at room temperature. Ten minutes later, thrombin was neutralized by the addition of 10 μL of 100 μM PPACK (thrombin inhibitor) to terminate the activation of TAFI. The formed TAFIa was stored in ice and diluted immediately before use in determination with 2050 μL of an HBS solution containing BSA (bovine serum albumin) adjusted to 0.1% in terms of the final concentration.
(2) Determination of TAFIa Inhibitory Activity
A test substance was dissolved in HBS to prepare a 10-fold dilution series of evaluation concentrations. 80 μL of the TAFIa solution and 10 μL of the test substance were added to each well of a 96-well plate and mixed by shaking for 10 minutes. 10 μL of furylacryloyl-alanyl-lysine (FAAK) adjusted to 5 mg/mL was added to each well, and the change in the absorbance of this mixed solution at 330 nm was read for 30 minutes to determine the degradation rate of the substrate.
(3) Calculation of Inhibitory Activity IC50
The degradation rate of the substrate in each well was applied to a standard curve prepared using the dilution series of the TAFIa solution to calculate TAFIa activity.
Consider `CC(C)(C)CCn1cnc([C@]2(C(=O)O)C[C@H]2CCCN)c1` [Example 27, (1S,2R)-2-(3-Aminopropyl)-1-[1-(3,3-dimethylbutyl)-1H-imidazol-4-yl]cyclopropanecarboxylic acid], for which the pIC50 is < 7.00.

For the compound `NCCC[C@H]1C[C@]1(C(=O)O)c1cn(-c2ccccc2)cn1` (relative stereo) [Example 6, (1R*,2S*)-2-(3-Aminopropyl)-1-(1-phenyl-1H-imidazol-4-yl)cyclopropanecarboxylic acid], the negative logarithm of the IC50 (pIC50) was 7.57.

Turning to `NCCC[C@H]1C[C@]1(C(=O)O)c1cn(-c2cccnc2)cn1` (relative stereo) [Example 24, (1R*,2S*)-2-(3-Aminopropyl)-1-(1-pyridin-3-yl-1H-imidazol-4-yl)cyclopropanecarboxylic acid], the pIC50 was 7.01.

Regarding `NCCC[C@H]1C[C@]1(C(=O)O)c1cn(-c2ccccn2)cn1` (relative stereo) [Example 25, (1R*,2S*)-2-(3-Aminopropyl)-1-(1-pyridin-2-yl-1H-imidazol-4-yl)cyclopropanecarboxylic acid], the pIC50 is 7.54. Regarding `NCCC[C@H]1C[C@]1(C(=O)O)c1cn(-c2ccc3ccccc3c2)cn1` (relative stereo) [Example 21, (1R*,2S*)-2-(3-Aminopropyl)-1-[1-(2-naphthyl)-1H-imidazol-4-yl]cyclopropanecarboxylic acid], the pIC50 was 7.57.

On to `NCCC[C@H]1C[C@]1(C(=O)O)c1cn(-c2ccc(Cl)cc2)cn1` (relative stereo) [Example 18, (1R*,2S*)-2-(3-Aminopropyl)-1-[1-(4-chlorophenyl)-1H-imidazol-4-yl]cyclopropanecarboxylic acid], for which the negative-log IC50 (pIC50) was 7.60. Take `NCCC[C@H]1C[C@]1(C(=O)O)c1cn(-c2ccc(Oc3ccccc3)cc2)cn1` (relative stereo) [Example 16, (1R*,2S*)-2-(3-Aminopropyl)-1-[1-(4-phenoxyphenyl)-1H-imidazol-4-yl]cyclopropanecarboxylic acid]: the pIC50 is 7.28.

In the case of `CC[C@@H](CN)C[C@@H]1C[C@@]1(C(=O)O)c1cn(-c2ccccn2)cn1` [Example 61, (1S,2R)-2-[(2R)-2-(Aminomethyl)butyl]-1-(1-pyridin-2-yl-1H-imidazol-4-yl)cyclopropanecarboxylic acid], the negative-log IC50 (pIC50) was 6.44. On the same count and under the same terms, the result for `COc1ccc(-n2cnc([C@@]3(C(=O)O)C[C@@H]3CCCN)c2)cc1` (relative stereo) [Example 12, (1R*,2S*)-2-(3-Aminopropyl)-1-[1-(4-methoxyphenyl)-1H-imidazol-4-yl]cyclopropanecarboxylic acid] reads 7.44. The same measure, in the same setting: the result for `NCCC[C@H]1C[C@]1(C(=O)O)c1cn(/C=C/c2ccccc2)cn1` (relative stereo) [Example 14, (1R*,2S*)-2-(3-Aminopropyl)-1-{1-[(E)-2-phenylvinyl]-1H-imidazol-4-yl}cyclopropanecarboxylic acid] reads 7.00; that for `Cc1ccc(-n2cnc([C@]3(C(=O)O)C[C@H]3C[C@@H](C)CN)c2)nc1` [Example 59, (1S,2R)-2-[(2R)-3-Amino-2-methylpropyl]-1-[1-(5-methylpyridin-2-yl)-1H-imidazol-4-yl]cyclopropanecarboxylic acid], 6.30; that for `Cc1ccc(-n2cnc([C@@]3(C(=O)O)C[C@@H]3CCCN)c2)cc1C` (relative stereo) [Example 10, (1R*,2S*)-2-(3-Aminopropyl)-1-[1-(3,4-dimethylphenyl)-1H-imidazol-4-yl]cyclopropanecarboxylic acid], 7.38.

Still in this test, the particulars now being: read-out: TAFIa IC50.
Take `CCC[C@@H](CN)C[C@H]1C[C@]1(C(=O)O)c1cn(-c2ccccn2)cn1` [Example 66, (1R,2S)-2-[(2R)-2-(Aminomethyl)pentyl]-1-(1-pyridin-2-yl-1H-imidazol-4-yl)cyclopropanecarboxylic acid]: the pIC50 is 7.39.

A further test concerns iron chloride-induced thrombus models.
Assay: not given
Particulars: mice, intravenous administration; cited from earlier work.
Consider “potato carboxypeptidase inhibitor (PCI) (QQHADPICNKPCKTHDDCSGAWFCQACWNSARTCGPYVG; UniProt P01075 1-39, looked up)”, for which the antithrombotic effect result is “antithrombotic effect”.
